Measurements from patent US8609610B2, “Inhibitors of the trypsin-like site of the proteasome and methods of use thereof” (Trustees of Dartmouth College, priority 2011, dated 2013).

How the values were obtained:
[1] = test system: chymotrypsin-like sites (β5) of proteasome in MM cells; assay: PROTEASOMEGLO assay of proteasome inhibition in MM cells; format: cell-based; details: washout
[2] = test system: T1, chymotrypsin-like sites (β5) of proteasome in MM cells; assay: as above; format: cell-based; details: for Inhibition of chymotrypsin-like sites, 6 h −NC-022: washout
T1 construct: other: NCI-H929; bortezomib 100 nM 1 h; bortezomib 11 nM 1 h; bortezomib 3.7 nM 1 h; bortezomib 33 nM 1 h; other: NCI-H9

[3] = target: T2, trypsin-like sites (β2) of proteasome in MM cells (Homo sapiens, UniProt Q99436); assay: as above; format: cell-based; details: for Inhibition of trypsin-like sites, 6 h +NC-022 / Inhibition of trypsin-like sites, 6 h −NC-022: washout
T2 construct: endogenous in cells; host or cells: NCI-H929, RPMI-8226 and other MM cell lines
T2 sequence (Q99436 44-277): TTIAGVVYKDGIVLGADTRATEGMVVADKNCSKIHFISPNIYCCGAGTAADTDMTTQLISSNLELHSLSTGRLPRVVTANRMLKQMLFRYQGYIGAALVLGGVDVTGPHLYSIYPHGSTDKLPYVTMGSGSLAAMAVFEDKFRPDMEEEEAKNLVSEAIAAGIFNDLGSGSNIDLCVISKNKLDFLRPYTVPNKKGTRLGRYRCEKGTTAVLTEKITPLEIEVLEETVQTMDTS

[4] = test system: KMS-12-BM cells; assay: ALAMAR BLUE cell viability assay; format: cell-based; details: viability at 48 h
Outline: (§1)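 Myeloma lines were grown in RPMI-1640 with 10% FBS; viability of myeloma cells was read by ALAMAR BLUE mitochondrial dye conversion. PBMNC viability used CELL TITER-GLO ATP luminescence. Caspase-3/7 activity in NCI-H929 and MM1.R was measured with the APO-ONE homogeneous assay.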

[5] = test system: NCI-H929 cells; assay: ALAMAR BLUE cell viability assay; format: cell-based; details: NCI-H929, viability at 48 h
Outline: as §1

[6] = test system: chymotrypsin-like sites; details: patients treated with carfilzomib; cited from earlier work
[7] = target: T3, trypsin-like site of 26S proteasomes (Oryctolagus cuniculus, UniProt G1SWK8); assay: Inhibition of purified 26S proteasomes, substrate Ac-RLR-amc; format: biochemical, rabbit; details: purified 26S proteasomes; >>30 no inhibition at 30 μM, >30 inhibition between 10 and 50% at 30 μM; read-out: IC50 for sites in 26S proteasomes: Tr-L
T3 construct: IC50 for sites in 26S proteasomes: Tr-L; other: purified 26S proteasomes; other: 26S proteasomes from rabbit muscles
T3 sequence (G1SWK8 1-271): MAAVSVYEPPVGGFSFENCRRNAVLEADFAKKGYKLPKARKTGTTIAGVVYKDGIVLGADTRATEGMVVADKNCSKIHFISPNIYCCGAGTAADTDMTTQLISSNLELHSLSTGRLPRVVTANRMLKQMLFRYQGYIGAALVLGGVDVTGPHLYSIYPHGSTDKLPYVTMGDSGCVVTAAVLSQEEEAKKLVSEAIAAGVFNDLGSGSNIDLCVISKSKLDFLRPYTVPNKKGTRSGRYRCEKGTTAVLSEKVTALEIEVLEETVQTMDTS

[8] = target: T4, chymotrypsin-like site of 26S proteasomes (Oryctolagus cuniculus, UniProt G1T4Q9); assay: Inhibition of purified 26S proteasomes, substrate Suc-LLVY-amc; format: biochemical, rabbit; details: >>30 no inhibition at 30 μM, >30 inhibition between 10 and 50% at 30 μM, read-out: IC50 for sites in 26S proteasomes: Chym-L
T4 sequence (G1T4Q9 1-263): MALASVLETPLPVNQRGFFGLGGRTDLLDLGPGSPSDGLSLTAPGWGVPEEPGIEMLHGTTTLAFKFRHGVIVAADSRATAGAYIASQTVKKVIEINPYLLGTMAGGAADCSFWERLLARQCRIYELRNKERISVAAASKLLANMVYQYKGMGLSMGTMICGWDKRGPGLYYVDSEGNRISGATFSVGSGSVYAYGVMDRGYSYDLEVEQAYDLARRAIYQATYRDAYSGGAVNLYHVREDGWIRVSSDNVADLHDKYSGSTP
Method: 26S proteasomes were purified from rabbit muscle using known methods (Screen, et al. (2010) supra). […] NOVEX Bis-Tris gels (12%, Invitrogen) with MOPS running buffer were used for electrophoretic separation of catalytic subunits modified by active-site probes. Inhibition of active sites inside cells was assayed using luminescent PROTEASOMEGLO assay (Promega; Moravec, et al. (2009) Anal. Biochem. 387:294-302) according to known methods (Britton, et al. (2009) supra).

[9] = test system: trypsin-like sites (β2) of proteasome in MM cells; assay: PROTEASOMEGLO assay of proteasome inhibition in MM cells; format: cell-based
[10] = test system: Cathepsin B, H, L, S; assay: Cathepsin activity with pan-cathepsin substrate Z-FR-amc; format: cell-based; details: NCI-H929 cells, 6 hour treatment
Method: Cathepsin B, H, L, S activity was measured with pan-cathepsin substrate Z-FR-amc (Kirschke & Wiederanders (1994) Methods Enzymol. 244:500-11) in extracts of cytosol-less cells at pH 6.0 (Screen, et al. (2010) supra). Cathepsin D activity was measured in cytosol-less extracts using SENSOLYTE 520 Cathepsin D Fluorometric Assay Kit (AnaSpec). Combined cathepsin D and E activity was measured using the same kit, in which cathepsin D substrate provided with the kit was replaced with 7-Methoxycoumarin-[…](Dnp)-X′-NH2 (SEQ ID NO:10; where “X′” stand for D-Arg) internally quenched fluorogenic substrate of cathepsin D and E. In this case, pH 3.0 assay buffer used for cell extraction. All activity observed using both procedures was inhibited by more than 98% by specific inhibitor of aspartic proteases pepstatin A.

[11] = target: T5, β2 proteasome subunit (Homo sapiens, UniProt P49720+Q99436); assay: Competition assay in HEK-293T cell lysate with MV151; format: biochemical; details: HEK293 extracts
T5 construct: Whole cell lysates of HEK-293T or EL-4 cells were made by sonication; endogenous in cells; host or cells: HEK-293T
Method: Protein concentration was determined by the Bradford assay.
Competitive inhibition of a proteasome active site is reflected by the disappearance of the corresponding band on a gel.

[12] = KMS-12-BM, carfilzomib 11 nM 1 h
[13] = KMS-12-BM, carfilzomib 33 nM 1 h
[14] = KMS-12-BM, carfilzomib 100 nM 1 h
[15] = KMS-12-BM, carfilzomib 300 nM 1 h
[16] = KMS-12-BM, carfilzomib 900 nM 1 h
[17] = NCI-H929, carfilzomib 3.7 nM 1 h
[18] = NCI-H929, carfilzomib 11 nM 1 h
[19] = NCI-H929, carfilzomib 33 nM 1 h

SMILES: CC(C)C[C@H](NC(=O)[C@H](CCc1ccccc1)NC(=O)CN1CCOCC1)C(=O)N[C@@H](Cc1ccccc1)C(=O)N[C@@H](CC(C)C)C(=O)[C@@]1(C)CO1 [Carfilzomib]
- Inhibition of chymotrypsin-like sites, 6 h +NC-022 [1, 12]: 63 ± 13 % control
- Inhibition of chymotrypsin-like sites, 6 h +NC-022 [1, 13]: 84 ± 6 % control
- Inhibition of chymotrypsin-like sites, 6 h +NC-022 [1, 14]: 90 ± 3 % control
- Inhibition of chymotrypsin-like sites, 6 h +NC-022 [1, 15]: 95 ± 4 % control
- Inhibition of chymotrypsin-like sites, 6 h +NC-022 [1, 16]: 99 ± 4 % control
- Inhibition of chymotrypsin-like sites, 6 h +NC-022 [1, 17]: 41 ± 29 % control
- Inhibition of chymotrypsin-like sites, 6 h +NC-022 [1, 18]: 52 ± 32 % control
- Inhibition of chymotrypsin-like sites, 6 h +NC-022 [1, 19]: 71 ± 23 % control
- Inhibition of chymotrypsin-like sites, 1 h [2, 12]: 75 ± 6 % control
- Inhibition of chymotrypsin-like sites, 6 h −NC-022 [2, 12]: 67 ± 17 % control
- Inhibition of chymotrypsin-like sites, 1 h [2, 13]: 90 ± 3 % control
- Inhibition of chymotrypsin-like sites, 6 h −NC-022 [2, 13]: 97 ± 1 % control
- Inhibition of chymotrypsin-like sites, 1 h [2, 14]: 95 ± 3 % control
- Inhibition of chymotrypsin-like sites, 6 h −NC-022 [2, 14]: 97 ± 1 % control
- Inhibition of chymotrypsin-like sites, 1 h [2, 15]: 97 ± 3 % control
- Inhibition of chymotrypsin-like sites, 6 h −NC-022 [2, 15]: 97 ± 1 % control
- Inhibition of chymotrypsin-like sites, 1 h [2, 16]: 98 ± 3 % control
- Inhibition of chymotrypsin-like sites, 6 h −NC-022 [2, 16]: 97 ± 0 % control
- Inhibition of chymotrypsin-like sites, 1 h [2, 17]: 14 ± 43 % control
- Inhibition of chymotrypsin-like sites, 6 h −NC-022 [2, 17]: 65.5 % control
- Inhibition of chymotrypsin-like sites, 1 h [2, 18]: 39 ± 35 % control
- Inhibition of chymotrypsin-like sites, 6 h −NC-022 [2, 18]: 89 ± 11 % control
- Inhibition of chymotrypsin-like sites, 1 h [2, 19]: 75 ± 17 % control
- Inhibition of chymotrypsin-like sites, 6 h −NC-022 [2, 19]: 95 ± 7 % control
- Inhibition of trypsin-like sites, 1 h [3, 12]: −3 ± 10 % control
- Inhibition of trypsin-like sites, 6 h +NC-022 [3, 12]: 91 ± 2 % control
- Inhibition of trypsin-like sites, 6 h −NC-022 [3, 12]: 5 ± 25 % control
- Inhibition of trypsin-like sites, 1 h [3, 13]: 0 ± 11 % control
- Inhibition of trypsin-like sites, 6 h +NC-022 [3, 13]: 91 ± 2 % control
- Inhibition of trypsin-like sites, 6 h −NC-022 [3, 13]: 45 ± 4 % control
- Inhibition of trypsin-like sites, 1 h [3, 14]: 18 ± 8 % control
- Inhibition of trypsin-like sites, 6 h +NC-022 [3, 14]: 94 ± 2 % control
- Inhibition of trypsin-like sites, 6 h −NC-022 [3, 14]: 62 ± 2 % control
- Inhibition of trypsin-like sites, 1 h [3, 15]: 49 ± 18 % control
- Inhibition of trypsin-like sites, 6 h +NC-022 [3, 15]: 93 ± 2 % control
- Inhibition of trypsin-like sites, 6 h −NC-022 [3, 15]: 69 ± 2 % control
- Inhibition of trypsin-like sites, 1 h [3, 16]: 75 ± 14 % control
- Inhibition of trypsin-like sites, 6 h +NC-022 [3, 16]: 94 ± 3 % control
- Inhibition of trypsin-like sites, 6 h −NC-022 [3, 16]: 72 ± 2 % control
- Inhibition of trypsin-like sites, 1 h [3, 17]: −7 ± 18 % control
- Inhibition of trypsin-like sites, 6 h +NC-022 [3, 17]: 93 ± 3 % control
- Inhibition of trypsin-like sites, 6 h −NC-022 [3, 17]: 3 % control
- Inhibition of trypsin-like sites, 1 h [3, 18]: 0 ± 14 % control
- Inhibition of trypsin-like sites, 6 h +NC-022 [3, 18]: 93 ± 2 % control
- Inhibition of trypsin-like sites, 6 h −NC-022 [3, 18]: 39 ± 36 % control
- Inhibition of trypsin-like sites, 1 h [3, 19]: 17 ± 8 % control
- Inhibition of trypsin-like sites, 6 h +NC-022 [3, 19]: 94 ± 3 % control
- Inhibition of trypsin-like sites, 6 h −NC-022 [3, 19]: 46 ± 24 % control
- Viability +NC-022 ([4]; carfilzomib 11 nM 1 h): 69 ± 2 % control
- Viability −NC-022 ([4]; carfilzomib 11 nM 1 h): 95 ± 3 % control
- Viability +NC-022 ([4]; carfilzomib 33 nM 1 h): 40 ± 3 % control
- Viability −NC-022 ([4]; carfilzomib 33 nM 1 h): 91 ± 3 % control
- Viability +NC-022 ([4]; carfilzomib 100 nM 1 h): 27 ± 5 % control
- Viability −NC-022 ([4]; carfilzomib 100 nM 1 h): 83.5 ± 3 % control
- Viability +NC-022 ([4]; carfilzomib 300 nM 1 h): 15 ± 1 % control
- Viability −NC-022 ([4]; carfilzomib 300 nM 1 h): 71 ± 2 % control
- Viability +NC-022 ([4]; carfilzomib 900 nM 1 h): 9 ± 1 % control
- Viability −NC-022 ([4]; carfilzomib 900 nM 1 h): 41 ± 7 % control
- Viability +NC-022 ([5]; carfilzomib 3.7 nM 1 h): 36 ± 15 % control
- Viability −NC-022 ([5]; carfilzomib 3.7 nM 1 h): 99 ± 9 % control
- Viability +NC-022 ([5]; carfilzomib 11 nM 1 h): 14 ± 8 % control
- Viability −NC-022 ([5]; carfilzomib 11 nM 1 h): 78 ± 15 % control
- Viability +NC-022 ([5]; carfilzomib 33 nM 1 h): 4 ± 2 % control
- Viability −NC-022 ([5]; carfilzomib 33 nM 1 h): 30 ± 11 % control
- inhibition of the chymotrypsin-like sites in patients [6]: ~90%

SMILES: CC(C)C[C@H](NC(=O)[C@H](Cc1ccc(CN)cc1)NC(=O)[C@H](Cc1ccccc1)N=[N+]=[N-])C(=O)N[C@H](/C=C/S(C)(=O)=O)Cc1ccc(CN)cc1 [Compound 52, N3-Phe-Phe (4-CH2NH2)-Leu-Phe (4-CH2NH2)-VS]
- IC50 [7]: 0.0066 µM
- IC50 [8]: 3.9 µM
- difference in IC50 for trypsin-like activity between NCI-H929 and RPMI-8226 [9]: 2.5 fold
- inhibition of cathepsins (Z-FR-amc) [10]: slightly more potent inhibitor of cathepsins
- potency in extracts of human cells [11]: most potent inhibitor in extracts
